Data reported in patent publication US6906107B2, “Use of cyclohexenone derivatives for the manufacture of a medicament in the treatment of dysuria” (Meiji Dairies Corporation, priority 2001, dated 2005).

Legend:
[1] = test system: bladder smooth muscle; assay: Test 3: contractive force of extracted bladder smooth muscle after ischemia-reperfusion of abdominal aorta; type: in vivo, rat; conditions: for Contractive force (contraction by carbachol) / Contractive force (contraction by concentrated potassium chloride): 30 minutes ischemia, 30 minutes reperfusion; for Contractive force (contraction by concentrated potassium chloride): potassium chloride 100 mM
Protocol: Test 3 ([…]) Compound 4 obtained in Preparation Example 4 was administered intraperitoneally to a rat immediately before the ischemia at a dose of 0.5, 2.0 and 8.0 mg/kg, and the rat was anesthetized by use of pentobarbital. Following 30 minutes ischemia of abdominal aorta of the rats, the abdominal aorta was subjected to perfusion for 30 minutes. Each bladder was then extracted and fixed in organbath filled with Krebs-Henseleit nutritive solution. By the use of TB-612T transducer (product of Nihonkoden), contractive force of bladder smooth muscle due to carbachol or concentrated potassium chloride (100 mM) was measured.

[2] = test system: STZ-administered rat; assay: Test 2: bladder capacity and urination efficiency from intravesical pressure under anesthesia; type: in vivo; conditions: Compound 4 i.p. 8 mg/kg daily for 8 weeks, mean ± S.E., p < 0.05 relative to STZ-administered group
Protocol: Test 2 (Bladder Capacity and Urination Efficiency)
In a similar manner to Test 1, Compound 4 obtained in Preparation Example 4 was administered intraperitoneally to a rat at a daily dose of 8 mg/kg for 8 weeks two days after administration of STZ. The intravesical pressure was measured under anesthesia. From the results, the bladder capacity and urination efficiency were determined.
Urination efficiency (%)=100×excreted amount/bladder capacity

[3] = test system: STZ-administered rat; assay: Test 1: maximum quantity excreted by single urination, metabolic cage, 24 hours; type: in vivo; conditions: STZ 65 mg/kg i.p. rat; Compound 4 i.p. 8 mg/kg daily for 8 weeks; mean ± S.E.; p < 0.05 relative to STZ-administered group
Protocol: Test 1 (Maximum Quantity Excreted by Single Urination)
To a rat, 65 mg/kg of streptozotocin (STZ) was administered intraperitoneally. After intraperitoneal administration of Compound 4, which had been obtained in Preparation Example 4, at a daily dose of 8 mg/kg for 8 weeks from two days after administration of STZ, urination pattern such as urination frequency and urination amount was recorded for 24 hours at 2.5-min intervals by using a metabolic cage.

[4] = 0.5 mg/kg i.p. immediately before ischemia
[5] = 2.0 mg/kg i.p. immediately before ischemia
[6] = 8.0 mg/kg i.p. immediately before ischemia

CC1=C(CCCCCCCCCCCCCCCO)C(C)(C)CCC1=O [Compound 4, 3-(15-Hydroxypentadecyl)-2,4,4-trimethyl-2-cyclohexen-1-one]
Contractive force (contraction by carbachol) [1, 4]: 4.5 ± 0.5 g/mm^2
Contractive force (contraction by concentrated potassium chloride) [1, 4]: 3.0 ± 0.4 g/mm^2
Contractive force (contraction by carbachol) [1, 5]: 5.4 ± 0.4 g/mm^2
Contractive force (contraction by concentrated potassium chloride) [1, 5]: 3.9 ± 0.3 g/mm^2
Contractive force (contraction by carbachol) [1, 6]: 6.5 ± 0.5 g/mm^2
Contractive force (contraction by concentrated potassium chloride) [1, 6]: 3.9 ± 0.4 g/mm^2
Effect on contraction of bladder smooth muscle (in words) ([1]; 0.5, 2.0 and 8.0 mg/kg i.p., summary of Tables 3 and 4): enhances contraction of bladder smooth muscle depending on its dose
Urination efficiency ([2]; 100×excreted amount/bladder capacity): 75.0±6.1%
Bladder capacity ([2]; urination-inducing bladder capacity): 0.54 ± 0.07 mL
Maximum amount excreted by single urination [3]: 3.71 ± 0.26 mL
